Values quoted from earlier work as cited in US20130177609A1, “Compositions and Methods for Increasing Bioavailability of Topical Ophthalmic Drugs” (priority 2008, published 2013).

Conditions: cited from earlier work

Row | SMILES | Approximate Solubility in Water
1 | CC(C)OC(=O)CCC/C=C\C[C@@H]1[C@@H](CC[C@@H](O)CCc2ccccc2)[C@H](O)C[C@@H]1O [latanoprost] | 52 µg/mL
2 | Nc1c(CC(=O)O)cccc1C(=O)c1ccc(Br)cc1 [bromfenac] | 13 µg/mL
3 | NC(=O)Cc1cccc(C(=O)c2ccccc2)c1N [nepafenac] | 20 to 50 µg/mL
4 | C[C@@H]1C[C@H]2[C@@H]3CCC4=CC(=O)C=C[C@]4(C)[C@@]3(F)[C@@H](O)C[C@]2(C)[C@@]1(O)C(=O)CO [dexamethasone] | 9 µg/mL
5 | Brc1c(NC2=NCCN2)ccc2nccnc12 [brimonidine] | 1500 µg/mL
6 | CC(C)NCC(O)COc1ccc(CCOCC2CC2)cc1 (stereo not drawn) [betaxolol] | 450 µg/mL
7 | CN1C(C(=O)Nc2ccccn2)=C(O)c2ccccc2S1(=O)=O [piroxicam] | 30 µg/mL
8 | CC(C)(C)NC[C@H](O)COc1cccc2c1CCCC2=O [levobutonol] | 250 µg/mL
9 | CCc1cccc2c3c([nH]c12)C(CC)(CC(=O)O)OCC3 (stereo not drawn) [etodolac] | 16 µg/mL
